Measured values: US20260184721A2, “FUSED RING COMPOUND, CONJUGATE THEREOF AND USE THEREOF” (Keymed Biosciences (Chengdu) Co., Ltd., priority 2022, published 2026)
Like-named read-outs stand apart in the source and are kept apart here.

Legend:
SK-BR-3 tumor cells = assay: In vitro proliferation inhibitory activity of compounds of Formula (GH) on SK-BR-3 tumor cells (CCK8); type: cell-based; conditions: Homo sapiens, SK-BR-3, 72 h, 3 days of culture, read-out: IC50 for inhibiting proliferation of SK-BR-3 cells in vitro
Experimental: The objective of this experiment is to detect the in vitro killing activity of the compound of Formula (GH) of the present disclosure on SK-BR-3 tumor cells (human breast cancer cells, Wuhan Procell, Catalog No. CL-0211). The cells were treated with different concentrations of the compound in vitro. After 3 days of culture, the number of viable cells was detected using CCK8 (Cell Counting Kit-8, Catalog No. TS547) reagents, and the in vitro activity of the test compound was evaluated according to the IC50 value.
Taking the test method of in vitro killing activity on SK-BR-3 cells as an example, the following test was performed. […] After the cells were completely digested, 10 mL of cell culture medium containing 2% FBS was added to wash out the digested cells, centrifugation was performed at 300 g for 5 min, the supernatant was discarded, and then 10 to 20 mL of cell culture medium containing 2% FBS was added to resuspend the cells to prepare a single cell suspension. • (3) Cell plating: The SK-BR-3 single cell suspension was mixed well, the viable cell density was adjusted to 6×10^4 cells/mL with the cell culture medium containing 2% FBS, the cell suspension after density adjustment was mixed well, and added to a 96-well cell culture plate at 100 μL/well. Only 200 μL of PBS was added to the peripheral wells of the 96-well plate. The culture plate was incubated in an incubator for 24 hours (37° C., 5% CO2). • (4) Compound preparation: The compound was dissolved in DMSO (dimethyl sulfoxide, SIGMA) to prepare a 2 mM stock solution.
The starting concentrations of small molecule compounds and Dxd were both 600 nM, and the preparation method was as follows.
Then, 315 μL of different samples to be tested were added to the first column of a 96-well U-bottomed drug distribution plate, and the sample concentration was 1200 nM; 210 μL of the cell culture medium containing 2% FBS was added to each well of the second to tenth columns. 105 μL of the sample was taken from the first column and added to the 210 μL cell culture medium in the second column and mixed well, and 105 μL was taken and added to the third column, and so on to the tenth column. • (5) Sample loading operation: 100 μL of the sample to be tested of different concentrations was added to the culture plate, and two replicate wells were set for each sample. The culture plate was incubated in an incubator for 3 days (37° C., 5% CO2). • (6) Color development operation: The 96-well cell culture plate was taken out, the cell culture supernatant was removed by tapping, 100 μL of the RPMI 1640 basal medium (without FBS) containing 10% CCK8 was added, and then it was incubated in an incubator for about 1.5 hours (37° C., 5% CO2). • (7) Plate reading operation: The 96-well cell culture plate was taken out, placed in an ELISA reader (MD SpectraMax i3X), and A450 was determined by the ELISA reader. • (8) Data analysis: Microsoft Excel and Graphpad Prism 5 were used to process and analyze the data.

NCI-N87 tumor cells = assay: In vitro proliferation inhibitory activity of compounds of Formula (GH) on NCI-N87 tumor cells (CCK8); type: cell-based, human; conditions: 6 days of culture, CCK8, read-out: IC50 for inhibiting proliferation of NCI-N87 cells in vitro
Experimental: The objective of this experiment is to detect the in vitro killing activity of the compound of Formula (GH) disclosed in the present invention on NCI-N87 tumor cells (human gastric cancer cells, Cell Resource Center, Institute of Basic Medicine, Chinese Academy of Medical Sciences, Catalog No. 3111C0001CCC000481). The cells were treated with different concentrations of the compound in vitro, and after 6 days of culture, the number of viable cells was detected using CCK8 (Cell Counting Kit-8, Catalog No. TS547) reagents, and the in vitro activity of the test compound was evaluated according to the IC50 value.
• (1) Cell culture: NCI-N87 cells were cultured in the RPMI 1640 medium containing 2% FBS (Shanghai BasalMedia Technologies Co., Ltd., Catalog No. L210KJ). • (2) Cell preparation: NCI-N87 cells in the logarithmic growth phase were taken, washed once with PBS (phosphate buffered saline, Shanghai BasalMedia Technologies Co., Ltd., Catalog No. E211004), added with 1 mL of trypsin (0.25% Trypsin-EDTA (1×), Shanghai BasalMedia Technologies Co., Ltd., Catalog No. A121002) to allow digestion for 2 to 3 minutes. After the cells were completely digested, 10 mL of the cell culture medium was added to wash off and obtain the digested cells, centrifugation was performed at 300 times gravitational acceleration (g) for 5 min, the supernatant was discarded, then 10 mL of PBS was added to wash the cells once, centrifugation was performed at 300 times gravitational acceleration (g) for 5 minutes, the supernatant was discarded, and 10 mL of the cell culture medium containing 2% FBS was added to resuspend the cells to prepare a single cell suspension. • (3) Cell plating: The NCI-N87 single cell suspension was mixed, the density of live cells was adjusted to 3×10^4 cells/mL with 2% FBS cell culture medium, the cell suspension after density adjustment was mixed well, and added to a 96-well cell culture plate at 100 μL/well. Only 200 μL of PBS was added to each of the peripheral wells of the 96-well plate. The plate was incubated in an incubator for 24 hours (37° C., 5% CO2). • (4) Preparation of sample to be tested:
The sample to be tested was diluted to 3200 nM with cell culture medium containing 2% FBS, then 300 μL of the sample was added to the first well of a 96-well U-bottomed plate with a sample concentration of 3200 nM; and 210 μL of cell culture medium containing 2% FBS was added to each well of the second to tenth columns. 70 μL of the sample was taken from the first column and added to the 210 μL cell culture medium in the second column and mixed well, 70 μL was taken and added to the third column, and so on to the ninth column. • (5) Sample loading operation: 100 μL of the sample to be tested with different concentrations was added to the culture plate, two replicate wells were set for each sample. The culture plate was incubated in an incubator for 6 days (37° C., 5% CO2). • (6) Color development operation: The 96-well cell culture plate was taken out, the supernatant of the culture medium was removed by tapping, 100 μL of 10% CCK8 (prepared with RPMI 1640 basal culture medium, without FBS) solution was added to each well, and incubation was performed in an incubator for 2 hours. • (7) Plate reading operation: The 96-well cell culture plate was taken out, placed in an ELISA reader (SpectraMax i3X), and A450 was determined by the ELISA reader. • (8) Data analysis: Microsoft Excel and Graphpad Prism 5 were used to process and analyze the data.

Row | SMILES | IC50 (SK-BR-3 tumor cells) [nM] | IC50 (NCI-N87 tumor cells; Homo sapiens, NCI-N87) [nM] | IC50 (NCI-N87 tumor cells) [nM]
1 | Cc1c(F)cc2nc3c(c4c2c1CC[C@H]4NC(=O)CO)Cn1c-3cc2c(c1=O)COC(=O)[C@]2(O)CC1CC1 [Compound 1-A, N-((1R,9S)-9-(cyclopropylmethyl)-5-fluoro-9-hydroxy-4-methyl-10,13-dioxo-2,3,9,10,13,15-hexahydro-1H,12H-benzo[de]pyrano[3′,4′:6,7]indolizino[1,2-b]quinolin-1-yl)-2-hydroxyacetamide] | 0.93 | – | –
2 | Cc1c(F)cc2nc3c(c4c2c1CC[C@@H]4NC(=O)CO)Cn1c-3cc2c(c1=O)COC(=O)[C@]2(O)CC1CC1 [Compound 1-B, N-((1S,9S)-9-(cyclopropylmethyl)-5-fluoro-9-hydroxy-4-methyl-10,13-dioxo-2,3,9,10,13,15-hexahydro-1H,12H-benzo[de]pyrano[3′,4′:6,7]indolizino[1,2-b]quinolin-1-yl)-2-hydroxyacetamide] | 1.94 | 5.36 | –
3 | Cc1c(F)cc2nc3c(c4c2c1CC[C@@H]4NC(=O)[C@H](C)O)Cn1c-3cc2c(c1=O)COC(=O)[C@]2(O)CC1CC1 [Compound 2-A, (S)-N-((1S,9S)-9-(Cyclopropylmethyl)-5-fluoro-9-hydroxy-4-methyl-10,13-dioxo-2,3,9,10,13,15-hexahydro-1H,12H-benzo[de]pyrano[3′,4′:6,7]indolizino[1,2-b]quinolin-1-yl)-2-hydroxypropanamide] | 5.88 | 1.92 | –
4 | Cc1c(F)cc2nc3c(c4c2c1CC[C@H]4NC(=O)[C@H](C)O)Cn1c-3cc2c(c1=O)COC(=O)[C@]2(O)CC1CC1 [Compound 2-B, (S)-N-((1R,9S)-9-(Cyclopropylmethyl)-5-fluoro-9-hydroxy-4-methyl-10,13-dioxo-2,3,9,10,13,15-hexahydro-1H,12H-benzo[de]pyrano[3′,4′:6,7]indolizino[1,2-b]quinolin-1-yl)-2-hydroxypropanamide] | 12 | – | –
5 | Cc1c(F)cc2nc3c(c4c2c1CC[C@@H]4NC(=O)[C@@H](C)O)Cn1c-3cc2c(c1=O)COC(=O)[C@]2(O)CC1CC1 [Compound 3-A, (R)-N-((1S,9S)-9-(cyclopropylmethyl)-5-fluoro-9-hydroxy-4-methyl-10,13-dioxo-2,3,9,10,13,15-hexahydro-1H,12H-benzo[de]pyrano[3′,4′:6,7]indolizino[1,2-b]quinolin-1-yl)-2-hydroxypropanamide] | 5.91 | 5.28 | –
6 | Cc1c(F)cc2nc3c(c4c2c1CC[C@H]4NC(=O)[C@@H](C)O)Cn1c-3cc2c(c1=O)COC(=O)[C@]2(O)CC1CC1 [Compound 3-B, (R)-N-((1R,9S)-9-(cyclopropylmethyl)-5-fluoro-9-hydroxy-4-methyl-10,13-dioxo-2,3,9,10,13,15-hexahydro-1H,12H-benzo[de]pyrano[3′,4′:6,7]indolizino[1,2-b]quinolin-1-yl)-2-hydroxypropanamide] | 2.36 | – | –
7 | Cc1c(F)cc2nc3c(c4c2c1CC[C@H]4NC(=O)[C@@H](O)C1CC1)Cn1c-3cc2c(c1=O)COC(=O)[C@]2(O)CC1CC1 [Compound 4-B, (S)-2-cyclopropyl-N-((1R,9S)-9-(cyclopropylmethyl)-5-fluoro-9-hydroxy-4-methyl-10,13-dioxo-2,3,9,10,13,15-hexahydro-1H,12H-benzo[de]pyrano[3′,4′:6,7]indolizino[1,2-b]quinolin-1-yl)-2-hydroxyacetamide] | 5.01 | – | –
8 | Cc1c(F)cc2nc3c(c4c2c1CC[C@@H]4NC(=O)[C@H](O)C1CC1)Cn1c-3cc2c(c1=O)COC(=O)[C@]2(O)CC1CC1 [Compound 5-A, (R)-2-Cyclopropyl-N-((1S,9S)-9-(cyclopropylmethyl)-5-fluoro-9-hydroxy-4-methyl-10,13-dioxo-2,3,9,10,13,15-hexahydro-1H,12H-benzo[de]pyrano[3′,4′:6,7]indolizino[1,2-b]quinolin-1-yl)-2-hydroxyacetamide] | 9.27 | – | –
9 | CC[C@@]1(O)C(=O)OCc2c1cc1n(c2=O)Cc2c-1nc1cc(F)c3c(c1c2CNC(=O)CO)CCC3 [Compound 24, (S)-N-((8-ethyl-4-fluoro-8-hydroxy-9,12-dioxo-2,3,8,9,12,14-hexahydro-1H,11H-cyclopenta[f]pyrano[3′,4′:6,7]indolizino[1,2-b]quinolin-15-yl)methyl)-2-hydroxyacetamide] | 5.79 | – | –
10 | CC[C@@]1(O)C(=O)OCc2c1cc1n(c2=O)Cc2c-1nc1cc(F)c3c(c1c2CNC(=O)[C@@H](C)O)CCC3 [Compound 26, (R)-N-(((S)-8-Ethyl-4-fluoro-8-hydroxy-9,12-dioxo-2,3,8,9,12,14-hexahydro-1H,11H-cyclopenta[f]pyrano[3′,4′:6,7]indolizino[1,2-b]quinolin-15-yl)methyl)-2-hydroxypropanamide] | 8.39 | – | –
11 | CC[C@@]1(O)C(=O)OCc2c1cc1n(c2=O)Cc2c-1nc1cc(F)c3c(c1c2CNC(=O)[C@@H](O)C1CC1)CCC3 [Compound 27, (S)-2-Cyclopropyl-N-(((S)-8-ethyl-4-fluoro-8-hydroxy-9,12-dioxo-2,3,8,9,12,14-hexahydro-1H,11H-cyclopenta[f]pyrano[3′,4′:6,7]indolizino[1,2-b]quinolin-15-yl)methyl)-2-hydroxyacetamide] | 13.9 | – | –
12 | CC[C@@]1(O)C(=O)OCc2c1cc1n(c2=O)Cc2c-1nc1cc(F)c3c(c1c2CNC(=O)[C@H](O)C1CC1)CCC3 [Compound 28, (R)-2-Cyclopropyl-N-(((S)-8-ethyl-4-fluoro-8-hydroxy-9,12-dioxo-2,3,8,9,12,14-hexahydro-1H,11H-cyclopenta[f]pyrano[3′,4′:6,7]indolizino[1,2-b]quinolin-15-yl)methyl)-2-hydroxyacetamide] | 15.1 | – | –
13 | CC[C@@]1(O)C(=O)OCc2c1cc1n(c2=O)Cc2c-1nc1cc(F)c(C)c3c1c2[C@@H](NC(=O)CO)CC3 [Dxd, reference compound] | – | – | 10.2
